Tests used:
[1] = tested on: c-Fos expression in neurons of the paraventricular and arcuate nuclei; assay: Melanocortin sensitivity analysis: c-Fos expression after ICV Mc4r agonist; format: in vivo; details: ICV infusion, both WT and Tph2-/- mice
Protocol: A survey was carried out of the expression of genes in hypothalamic neurons that may mediate leptin regulation of appetite and the expression of which is perturbed in Tph2−/− mice. […] Two observations support the notion that the appetite phenotype of the Tph2−/− mice is caused, at least in part, by an increase in melanocortin signaling. […] Moreover, Mc4r expression was increased ˜2 fold in Htr1a−/− and ˜1.6 fold in Htr2bPomc−/− mice, but was unaffected in Htr2c−/− mice (FIG. 6J and data not shown).
To analyze changes in melanocortin sensitivity in Tph2−/− mice, MTII (2 μg) or saline was administered (ICV) into WT and Tph2−/− mice. 3 hours later mice were transcardially perfused with 4% PFA, brains were dissected and postfixed in 4% PFA overnight at 4° C. Following cryoprotection in 20% sucrose, brains were coronally sectioned at 30 μm thickness. For colorimetric cFos immunohistochemistry, sections were incubated for 16 hrs at 4° C. in rabbit anti-cFos antiserum (Ab-5; 1:3000 dilution; Calbiochem), incubated with biotinylated goat anti-rabbit IgG secondary antiserum (1:600; Vector laboratories) for 2 h at room temperature, and then incubated in avidin biotin complex (Vector Labs). Color was developed using Vector ABC kit.

[2] = tested on: CREB phosphorylation in arcuate neurons; assay: CREB phosphorylation in hypothalamic explant cultures (immunofluorescence of p-CREB); format: cell-based, mice; details: hypothalamic explants treated with serotonin
Protocol: FIG. 18. (A) Western blot analysis of CREB phosphorylation and CREB in hypothalamic explants treated with PBS, serotonin (50 µM), Htr1a antagonist (LY426955) (50 µM) or serotonin (50 µM)+Htr1a antagonist (LY426955) (50 µM). (B) Analysis of CREB phosphorylation by immunofluorescence using P-CREB (S133) antibody. Immunofluorescence was performed on coronal sections of wild type (WT) hypothalamic explants previously treated with, PBS, 50 µM serotonin, 50 µM Htr1a antagonist (LY426955) or 50 µM serotonin+50 µM Htr1a antagonist (LY426955) for 30 min. The first row represents large bright field images of hypothalamic sections and the immunofluorescence analysis of the restricted hypothalamic region containing the Arcuate (Arc) neurons. Ventromedial hypothalamus (VMH) and Arcuate (Arc) are outlined with dashed. (C-D) Analysis of the appetite of CrebPomc−/− mice. (C) Measurement of the food intake (g) within 12 hours and 24 hours and (D) body weight analysis in WT, CrebPomc+/− and CrebPomc−/− mice. *(p<0.05, SEM). (E) Real-time PCR analysis of Mc4r, Pomc-1, Cart, Mch, Hypocretine and Npy expression in hypothalamus of WT and CrebPomc−/− mice. *(p<0.05, SEM).
Htr1a is a […] coupled receptor that signals through the cAMP-PKA-dependent pathway. […]

[3] = tested on: serotonergic neurons; assay: Whole cell patch clamp recording in brain slices containing dorsal raphe; format: cell-based; details: WT mice
Protocol: The mediation of peripheral hormone action on the output of the brain relies on altered neuronal circuit activity. Interaction between neuronal circuits hinges on electric properties of neurons, particularly on the generation of action potentials. Thus, to test whether leptin directly alters serotonin output from brainstem neurons, the responses of serotonin-producing cells to leptin were analyzed with whole cell patch clamp recording in brain slices containing dorsal raphe (DR). Slices were taken from WT animals and from mice lacking ObRb selectively in Tph2-expressing neurons (ObRbSERT−/− mice). Serotonergic neurons were identified according to their unique properties (long-duration action potential, activation by norepinephrine and inhibition by serotonin itself) (Liu et al., 2002, J. Neurosci. 22:9453-9464). Since serotonergic neurons are usually quiescent in slices because of the loss of noradrenergic inputs, action potentials in these neurons were restored by application of alpha-1 adrenergic agonist phenylephrine (3 μM) in the bath (Liu et al., 2002, J. Neurosci. 22:9453-9464). […]
Whole-cell current clamp was performed to observe action potentials in DR seritonergic (5-HT) neurons with a Multiclamp 700A amplifier (Axon instrument, CA). […] Electrophysiological data were analyzed with Axograph 4.9 and plotted with Igor Pro software (WaveMetrics, Lake Oswego, Oreg.).

[4] = tested on: Tph2 expression; assay: qPCR analysis of Tph2 expression following leptin ICV infusion; format: in vivo; details: WT mice, different doses and time points
Description: FIG. 5. Leptin inhibits bone mass accrual by inhibiting brain-derived serotonin synthesis. (A) In situ hybridization analysis and co-immunolocalization of ObRb expression in serotonergic neurons. (B-C) qPCR analysis of Tph2 expression (B) and brainstem serotonin content (C) at different ages in WT and ob/ob female mice. (D-E) qPCR analysis of Tph2 expression following intra-cerebroventricular (ICV) infusion of leptin at different doses (D) and at different time points (E) in WT mice. (F) Immunohistochemical analysis of STAT3 phosphorylation in the dorsal and median raphe following leptin ICV. Arrows indicate pSTAT3/β-Gal positive cells. (G-H) qPCR analysis of Tph2 expression (G) and brainstem serotonin content (H) in WT, ob/ob and ob/ob; Tph2+/− mice. (I) Histomorphometric analysis of vertebrae of ob/ob and ob/ob; Tph2+/− mice. (J) Representative traces of action potentials recorded from WT mice before, during and after the application of leptin (100 nM). R.M.P. −43.0 mV. (K-L) Analysis of serotonergic neuron action potential (AP) frequency in brainstem slices from WT (K) and ObRbSERT−/− (L) mice. All panels (except D, E, G, H and K) *P<0.05; **P<0.01 (Student's t test). Error bars, SEM. […]
RNA isolation, cDNA preparation and qPCR analysis was carried out following standard protocols. Genotypes of all the mice were determined by PCR. […]

[5] = tested on: phosphorylation of Stat3; assay: Co-immunolocalization of Stat3 phosphorylation in serotonergic neurons of the brainstem after acute leptin ICV infusion; format: in vivo, mice
Description: Multiple lines of evidence indicate that it is by inhibiting BDS synthesis that leptin prevents bone mass accrual. First, ObRb, the signaling form of the leptin receptor, is expressed in β-galactosidase-positive Tph2-expressing neurons (FIG. 5A). […] Leptin inhibits synthesis of BDS, which in turn reduces, by signaling in VMH neurons, the sympathetic tone; as a result leptin prevents bone mass accrual.
Animals were anaesthetized and placed on a stereotaxic instrument (Stoelting) and the depth of anesthesia was determined by the animal's respiratory pattern and by pinching the animal's foot for reflex response. The dorsal part of the animal's head was shaved and prepped with betadine scrub, and 70% alcohol. The skin covering the head was then cut (approximately a 1 cm incision) and the calvaria exposed. A hole was drilled upon bregma using a 28-gauge needle. A 28 gauze needle canula (Brain infusion kit II, Alzet) was then implanted into the hole reaching the third cerebral ventricle according to the following coordinates: midline, −0.3 AP. 3 mm ventral (0 point Bregma). Using a Hamilton syringe, PBS or leptin (2 μg) was injected into the 3rd cerebral ventricle. The dorsal edges of the incision were coated with Bupivicaine 0.25% (<2 mg/kg), joined and closed with 2 sterile clips. […]

Question: For MTII, which “c-Fos expression in neurons of the paraventricular and arcuate nuclei” value [1] is on record?
Answer: increased c-Fos expression

Question: With `NCCc1c[nH]c2ccc(O)cc12` [serotonin] as the compound, how does the CREB phosphorylation [2] read?
Answer: increased CREB phosphorylation in arcuate neurons

Question: For “leptin: adipocyte-derived hormone that regulates appetite and energy expenditure”, which “action potential frequency in serotonergic neurons” value [3] is on record?
Answer: significantly decreased action potential frequency

Question: What about the Tph2 expression [4] of the same compound?
Answer: decreased Tph2 expression in a time- and dose-dependent manner

Question: What about the “phosphorylation of Stat3 in serotonergic neurons of the brainstem” value ([5]; ObRbSERT-/- mice) of the same compound?
Answer: dramatically reduced

Question: What about the “phosphorylation of Stat3 in serotonergic neurons of the brainstem” value ([5]; WT mice) of the same compound?
Answer: increased
